Series [1] has as its target T1, OX1 (Homo sapiens, UniProt O43613).
T1 construct: expressed in transfected cells; host or cells: CHO (CHO-OX1, kept under selection antibiotic)
T1 sequence (O43613 1-425): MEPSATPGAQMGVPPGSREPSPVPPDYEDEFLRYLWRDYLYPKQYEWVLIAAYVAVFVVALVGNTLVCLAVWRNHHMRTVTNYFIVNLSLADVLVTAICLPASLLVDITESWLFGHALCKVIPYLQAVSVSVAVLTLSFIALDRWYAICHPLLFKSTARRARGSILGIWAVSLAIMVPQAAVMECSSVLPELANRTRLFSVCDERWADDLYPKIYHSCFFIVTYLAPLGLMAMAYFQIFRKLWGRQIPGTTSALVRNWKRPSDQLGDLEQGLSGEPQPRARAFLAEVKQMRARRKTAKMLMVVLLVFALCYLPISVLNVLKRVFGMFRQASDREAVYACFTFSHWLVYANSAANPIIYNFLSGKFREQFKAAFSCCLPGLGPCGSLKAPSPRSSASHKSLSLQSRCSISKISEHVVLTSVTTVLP
Nature of the series: Orexin receptor cell-based functional assay, [Ca2+]i by FLIPR, CHO-OX1 cells. The conditions noted are these: CHO-OX1 cells, [Ca2+]i by FLIPR, antagonist dose-range 0.1 nM-10 μM, EC90 of OXA; read-out: OX1. In outline:
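CHO cells expressing human OX1 or OX2 loaded with calcium dye plus 2.5 mM probenecid at 37° C (calcium4, 30 min, or calcium6, 2 h), then exposed to compounds (0.1 nM-10 μM) for 30 min. Intracellular Ca2+ measured on FLIPR; antagonist format.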

For series [2], the target named is T2, CYP3A4 (Homo sapiens, UniProt P08684).
T2 construct: pre-incubated with human liver microsomes and NADPH; from tissue; host or cells: human liver microsomes
Nature of the series: Cytochrome P450 inhibition assay (midazolam hydroxylation). It counts as in vitro ADME. The conditions noted are these: human, human liver microsomes, probe midazolam (hydroxylation to 1′-hydroxymidazolam), 10 μM test compound, midazolam at approximately its Km. In outline: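 Human liver microsomes; CYP3A4 activity as midazolam 1′-hydroxylation with substrate near Km, with or without 10 μM test compound, read as percent inhibition. For time-dependent inhibition, parallel samples were preincubated 30 min with NADPH before substrate, and percent inhibition compared with non-preincubated samples.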
A general note: Microsomes from liver hold many membrane-bound enzymes, among them those of drug oxidation.

The inhibition is the percentage by which the read-out fell short of the control.

T2 sequence (P08684 whole entry): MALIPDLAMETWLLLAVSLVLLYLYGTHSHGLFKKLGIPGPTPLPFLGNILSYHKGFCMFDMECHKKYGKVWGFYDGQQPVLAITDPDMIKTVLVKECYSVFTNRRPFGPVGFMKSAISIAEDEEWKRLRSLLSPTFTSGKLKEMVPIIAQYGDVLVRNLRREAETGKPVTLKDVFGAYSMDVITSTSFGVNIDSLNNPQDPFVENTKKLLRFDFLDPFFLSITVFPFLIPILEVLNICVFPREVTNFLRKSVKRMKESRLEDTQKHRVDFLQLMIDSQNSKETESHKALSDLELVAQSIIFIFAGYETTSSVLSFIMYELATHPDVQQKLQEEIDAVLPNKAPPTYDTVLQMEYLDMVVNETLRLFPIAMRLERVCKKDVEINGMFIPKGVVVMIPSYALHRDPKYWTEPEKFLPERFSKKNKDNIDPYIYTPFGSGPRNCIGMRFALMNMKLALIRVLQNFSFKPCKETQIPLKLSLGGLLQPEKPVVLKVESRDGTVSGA

For `Cc1ccc(-n2cccn2)c(C(=O)N2CCC[C@@H](C)[C@H]2CNc2ncc(C(F)(F)F)cn2)n1` [Example A166, ((2S,3R)-3-Methyl-2-(((5-(trifluoromethyl)pyrimidin-2-yl)amino)methyl)piperidin-1-yl)(6-methyl-3-(1H-pyrazol-1-yl)pyridin-2-yl)methanone], the IC50 in series [1] is 0.008 µM. For the same compound, the inhibition at 10 µM in series [2] was 44%.
For `Cc1ccc(-n2nccn2)c(C(=O)N2CCC[C@@H](C)[C@H]2CNc2ccc(C(F)(F)F)nn2)n1` [Example A176, ((2S,3R)-3-Methyl-2-(((6-(trifluoromethyl)pyridazin-3-yl)amino)methyl)piperidin-1-yl)(6-methyl-3-(2H-1,2,3-triazol-2-yl)pyridin-2-yl)methanone] the same measures were 0.006 µM and 37%.
In the same order, the values of `Cc1ccc(-c2ncccn2)c(C(=O)N2CCC[C@@H](C)[C@H]2CNc2ncc(F)cc2F)c1` [Example A182, ((2S,3R)-2-(((3,5-Difluoropyridin-2-yl)amino)methyl)-3-methylpiperidin-1-yl)(5-methyl-2-(pyrimidin-2-yl)phenyl)methanone] are 0.14 µM and 65%.
In the same order, the values of `Cc1ccc(-c2cnn(C)c2)c(C(=O)N2CCC[C@@H](C)[C@H]2CNc2ncccc2C#N)c1` [Example A95, 2-((((2S,3R)-3-Methyl-1-(5-methyl-2-(1-methyl-1H-pyrazol-4-yl)benzoyl)piperidin-2-yl)methyl)amino)nicotinonitrile] are above 1 µM and 88%.
Turning to `Cc1ccc(-n2nccn2)c(C(=O)N2CCC[C@@H](C)[C@H]2CNc2nc(C(F)(F)F)cs2)c1` [Example A123, ((2S,3R)-3-Methyl-2-(((4-(trifluoromethyl)thiazol-2-yl)amino)methyl)piperidin-1-yl)(5-methyl-2-(2H-1,2,3-triazol-2-yl)phenyl)methanone], the IC50 in series [1] was determined as 0.41 µM. This compound also registered an inhibition at 10 µM in series [2] of 97%.
In the same order, the values of `Cc1ccc(-n2cccn2)c(C(=O)N2CCC[C@@H](C)[C@H]2CNc2ccc(C(F)(F)F)nn2)c1` [Example A157, ((2S,3R)-3-mMethyl-2-(((6-(trifluoromethyl)pyridazin-3-yl)amino)methyl)piperidin-1-yl)(5-methyl-2-(1H-pyrazol-1-yl)phenyl)methanone] are 0.11 µM and 77%.
In the same order, the values of `Cc1ccc(-c2nn[nH]n2)c(C(=O)N2CCC[C@@H](C)[C@H]2CNc2ccc(C(F)(F)F)cn2)c1` [Example A23, ((2S,3R)-3-Methyl-2-(((5-(trifluoromethyl)pyridin-2-yl)amino)methyl)piperidin-1-yl)(5-methyl-2-(2H-tetrazol-5-yl)phenyl)methanone] are above 1 µM and 75%.
Turning to `Cc1ccc(-c2ccccn2)c(C(=O)N2CCC[C@@H](C)[C@H]2CNc2ncc(C#N)cn2)c1` [Example A153, 2-((((2S,3R)-3-Methyl-1-(5-methyl-2-(pyridin-2-yl)benzoyl)piperidin-2-yl)methyl)amino)pyrimidine-5-carbonitrile], the IC50 in series [1] turned out to be 0.14 µM. This compound had an inhibition at 10 µM in series [2] of 66%.
For `Cc1ccc(-c2cccnc2)c(C(=O)N2CCC[C@@H](C)[C@H]2CNc2ncc(C(F)(F)F)cn2)n1` [Example A223, ((2S,3R)-3-Methyl-2-(((5-(trifluoromethyl)pyrimidin-2-yl)amino)methyl)piperidin-1-yl)(6-methyl-[3,3′-bipyridin]-2-yl)methanone] the same measures were 0.037 µM and 93%.
In the same order, the values of `Cc1ccc(-c2nccs2)c(C(=O)N2CCC[C@@H](C)[C@H]2CNc2ccc(C(F)(F)F)cn2)c1` [Example A24, ((2S,3R)-3-Methyl-2-(((5-(trifluoromethyl)pyridin-2-yl)amino)methyl)piperidin-1-yl)(5-methyl-2-(thiazol-2-yl)phenyl)methanone] are 0.011 µM and 97%.
In the same order, the values of `Cc1ccc(-n2cnc(C)n2)c(C(=O)N2CCC[C@@H](C)[C@H]2CNc2ccc(C(F)(F)F)cn2)c1` [Example A17, ((2S,3R)-3-Methyl-2-(((5-(trifluoromethyl)pyridin-2-yl)amino)methyl)piperidin-1-yl)(5-methyl-2-(3-methyl-1H-1,2,4-triazol-1-yl)phenyl)methanone] are 0.02 µM and 95%.
Consider `Cc1ccc(-n2nccn2)c(C(=O)N2CCC[C@@H](C)[C@H]2CNc2ccc(C#N)nn2)c1` [Example A145, 6-((((2S,3R)-3-Methyl-1-(5-methyl-2-(2H-1,2,3-triazol-2-yl)benzoyl)piperidin-2-yl)methyl)amino)pyridazine-3-carbonitrile], for which the IC50 in series [1] is above 1 µM. In addition, in series [2], 10 µM produced 48% inhibition.
On to `Cc1cccc(C(=O)N2CCC[C@@H](C)[C@H]2CNc2ccc(C(F)(F)F)cn2)c1-c1ncccn1` [Example A298, ((2S,3R)-3-Methyl-2-(((5-(trifluoromethyl)pyridin-2-yl)amino)methyl)piperidin-1-yl)(3-methyl-2-(pyrimidin-2-yl)phenyl)methanone], for which the IC50 in series [1] is 0.005 µM. This compound also showed an inhibition at 10 µM in series [2] of 75%.
In the same order, the values of `Cc1ccc(-c2cnn(C(C)C)c2)c(C(=O)N2CCC[C@@H](C)[C@H]2CNc2ccc(C(F)(F)F)cn2)c1` [Example A111, (2-(1-Isopropyl-1H-pyrazol-4-yl)-5-methylphenyl)((2S,3R)-3-methyl-2-(((5-(trifluoromethyl)pyridin-2-yl)amino)methyl)piperidin-1-yl)methanone] are 0.017 µM and 96%.
Turning to `Cc1nc(C(=O)N2CCC[C@@H](C)[C@H]2CNc2ncc(Cl)cn2)c(-c2ccc(F)cc2)s1` [Example A41, ((2S,3R)-2-(((5-Chloropyrimidin-2-yl)amino)methyl)-3-methylpiperidin-1-yl)(5-(4-fluorophenyl)-2-methylthiazol-4-yl)methanone], the IC50 in series [1] stood at 0.004 µM. This compound also registered an inhibition at 10 µM in series [2] of 52%.
As for `Cc1cccc(-c2ncccn2)c1C(=O)N1CCC[C@@H](C)[C@H]1CNc1ncc(C(F)(F)F)cn1` [Example A307, ((2S,3R)-3-Methyl-2-(((5-(trifluoromethyl)pyrimidin-2-yl)amino)methyl)piperidin-1-yl)(2-methyl-6-(pyrimidin-2-yl)phenyl)methanone], the IC50 in series [1] came to 0.25 µM. In series [2], this compound displayed an inhibition at 10 µM of 46%.
For `Cc1ccc(-n2ncc(C)n2)c(C(=O)N2CCC[C@@H](C)[C@H]2CNc2ccc(C(F)(F)F)nn2)c1` [Example A125, ((2S,3R)-3-Methyl-2-(((6-(trifluoromethyl)pyridazin-3-yl)amino)methyl)piperidin-1-yl)(5-methyl-2-(4-methyl-2H-1,2,3-triazol-2-yl)phenyl)methanone] the same measures were 0.025 µM and 75%.
In the same order, the values of `Cc1ccc(-c2ncccn2)c(C(=O)N2CCC[C@@H](C)[C@H]2CNc2ncc(C(F)(F)F)cn2)c1` [Example A212, ((2S,3R)-3-Methyl-2-(((5-(trifluoromethyl)pyrimidin-2-yl)amino)methyl)piperidin-1-yl)(5-methyl-2-(pyrimidin-2-yl)phenyl)methanone] are 0.005 µM and 49%.
